Experimental data taken from ChEMBL document CHEMBL5380876, “Non-fused imidazole-biphenyl analogs repress triple-negative breast cancer growth by mainly stabilizing the c-MYC G-quadruplex via a multi-site binding mode” (Bioorg Med Chem, 2023).
pIC50: −log10 of the molar value. Active and inactive are the calls of the source. The calls are words filed in the database; no cut-off is given here.

Columns and labels:
Quadruplex DNA [1] = experiment: Stabilization of c-Myc G4 quadruplex DNA (unknown origin) assessed as temperature at which 50% protein unfold by circular dichroism melting assay; type: nucleic-acid assay
KYSE-30 = experiment: Cytotoxicity against human KYSE-30 cells assessed as reduction in cell viability by CCK8 assay; type: functional, cell-based
HeLa = experiment: Cytotoxicity against human HeLa cells assessed as reduction in cell viability by CCK8 assay; type: functional, cell-based
A549 = experiment: Cytotoxicity against human A549 cells assessed as reduction in cell viability by CCK8 assay; type: functional, cell-based
HCC1806 = experiment: Cytotoxicity against human HCC1806 cells assessed as reduction in cell viability by CCK8 assay; type: functional, cell-based
[2] = Cytotoxicity against human MCF-10A cells assessed as reduction in cell viability by CCK8 assay; type: toxicity, cell-based
MDA-MB-231 [3] = experiment: Cytotoxicity against human MDA-MB-231 cells assessed as reduction in cell viability by CCK8 assay; type: functional, cell-based
Quadruplex DNA [4] = experiment: Stabilization of c-Myc G4 quadruplex DNA (unknown origin) assessed as temperature at 50% protein unfold by circular dichroism melting assay; type: nucleic-acid assay
MDA-MB-231 [5] = experiment: Antitumor activity against human MDA-MB-231 cells xenografted in BALB/c nude mouse assessed as reduction in tumor weight at 2 mg/kg, ip administered every other day for 20 days and measured every 4 days; type: functional, organism-based; conditions: time 20.0 day
[6] = Toxicity in BALB/c mouse xenografted with human MDA-MB-231 cells assessed as effect on body weight at 2 mg/kg, ip administered every other day for 20 days and measured every 4 days; type: organism-based; conditions: in vivo, 480 h, time 20 day

| Compound | T (Quadruplex DNA [1]) [°C] | pIC50 (KYSE-30) | pIC50 (HeLa) | pIC50 (A549) | pIC50 (HCC1806) | pIC50 [2] | pIC50 (MDA-MB-231 [3]) | T (Quadruplex DNA [4]) [°C] | Activity (MDA-MB-231 [5]) | Activity [6] |
| --- | --- | --- | --- | --- | --- | --- | --- | --- | --- | --- |
| COc1ccc(-c2ccc(-c3nc(-c4ccc(N5CCN(C)CC5)cc4)c(-c4ccc(N5CCN(C)CC5)cc4)[nH]3)cc2)cc1 | 36.2 | 5.60 | 5.26 | 5.62 | 5.43 | 5.01 | 5.57 | – | – | – |
| CN1CCN(c2ccc(-c3nc(-c4ccc(C(F)(F)F)cc4)[nH]c3-c3ccc(N4CCN(C)CC4)cc3)cc2)CC1 | – | – | – | – | – | – | – | 28.4 | – | – |
| CN1CCN(c2ccc(-c3nc(-c4ccc(-c5ccccc5C(F)(F)F)cc4)[nH]c3-c3ccc(N4CCN(C)CC4)cc3)cc2)CC1 | 29.6 | 5.66 | 5.45 | 5.77 | 5.72 | < 4.70 | 5.61 | – | – | – |
| CN1CCN(c2ccc(-c3nc(-c4ccc(-c5ccccc5)cc4)[nH]c3-c3ccc(N4CCN(C)CC4)cc3)cc2)CC1 | 36.8 | 5.41 | 5.05 | 5.60 | 5.25 | 5.03 | 5.43 | – | – | – |
| CN1CCN(c2ccc(-c3nc(-c4ccc(-c5ccccn5)cc4)[nH]c3-c3ccc(N4CCN(C)CC4)cc3)cc2)CC1 | 34.4 | 5.55 | 4.91 | 5.71 | 5.15 | 5.11 | 5.66 | – | – | – |
| COc1ccccc1-c1ccc(-c2nc(-c3ccc(N4CCN(C)CC4)cc3)c(-c3ccc(N4CCN(C)CC4)cc3)[nH]2)cc1 | 23.5 | 5.06 | < 4.70 | 5.12 | < 4.70 | < 4.70 | 5.09 | – | – | – |
| COc1cccc2c1C(=O)c1c(O)c3c(c(O)c1C2=O)C[C@@](O)(C(=O)CO)C[C@@H]3O[C@H]1C[C@H](N)[C@H](O)[C@H](C)O1 [DOXORUBICIN] | – | – | – | – | – | – | – | – | Active | Toxic |
